Here are results for 4 molecules from PMC11475281, “A Novel Liver Cancer-Selective Histone Deacetylase Inhibitor Is Effective against Hepatocellular Carcinoma and Induces Durable Responses with Immunotherapy” (ACS Pharmacology & Translational Science, 2024).

Experiment [1] deals with Hep-G2 cells. The experiment in a line: Immunoblotting of CD54 (ICAM-1) expression. The format is cell-based, human. The note with it: 24 h, STR-V-53 at IC50 and 2× IC50. The method, then:
(§1) Figure 3 Effects of STR-V-53 on intracellular markers of HDAC inhibition, antitumor immune response, and apoptosis. (a) STR-V-53 upregulates the levels of acetylated H4 and tubulin in Hep-G2 cells. Hep-G2 cells were treated with DMSO or 0.1% DMSO solution of SAHA (1.25 μM) and STR-V-53 (1.25 μM, 2.5 μM). Cells were treated for 5 h before lysis. Data are from two independent experiments. (b) STR-V-53 upregulates PD-L1 and downregulates PD-1 expressions in Hep-G2 cells. Cells were treated with DMSO or 0.1% DMSO solution of SAHA (5 μM and 10 μM) and STR-V-53 (10 and 20 μM) for 24 h. (c) STR-V-53 and SAHA caused upregulation of the levels of CD54 in the Hep-G2 cell line. Cells were treated with DMSO or 0.1% DMSO solution of SAHA (5 and 10 μM) and STR-V-53 (5, 10, and 20 μM) for 24 h. […] Cells were treated with DMSO or 0.1% DMSO solution of SAHA (5 μM) and STR-V-53 (10 and 20 μM).
HDACi regulates the expression levels of other tumor antigens such as CD40, CD54 (ICAM-1), CD80, and CD86 in tumor cells.[32]−[35] More specifically, the repression of CD54 expression is another strategy tumors use to escape the immune response.[36] […] To investigate the effect of our glycosylated HDACi on the expression of CD54, we incubated Hep-G2 cells with STR-V-53 at IC50 and 2× IC50 for 24 h. We used immunoblotting to determine the effect of this treatment on CD54 expression. […]
(In general: A western blot detects proteins with antibodies after separation by electrophoresis.)

For experiment [2], the system named is Hep-G2 cells. The experiment in a line: Immunoblotting of acetylated histone H4 and α-tubulin. It is filed as cell-based, human. Particulars: for Acetylation status of histone H4 and α-tubulin: at 1/4 IC50 and 1/2 IC50.
Text: To determine the contributions of HDAC inhibition to the antiproliferative activities of the glycosylated HDACi compounds, immunoblotting was used to investigate the acetylation status of histone H4 and α-tubulin, biomarkers for HDAC class I and class IIb intracellular inhibition, respectively,[27] in Hep-G2 cells in response to exposure to representative compounds STR-V-53, STR-V-114, and STR-I-195. We used SAHA as a positive control for HDAC inhibition and GAPDH level as a protein loading control.
as §1
10-017-CV), supplemented with 10% fetal bovine serum (FBS) (Corning, 35-010-CV). Hep-G2 cells were cultured in phenol red-free Minimum Essential Medium (MEM) (Corning, 17-305-CV), supplemented with 10% fetal bovine serum (FBS). SK-Hep-1 in ATCC-formulated EMEM (ATCC® 30–2003™); Huh-7 in DMEM (containing 4 mM L-glutamine and 1 g/L glucose) with […]
Kupffer Cell Media (Sekisui XenoTech, LLC, Cat. #K8700). Cells were seeded into a 96-well plate (2000 counts/100uL) for 24 h prior to treatment and then treated with various drug concentrations for 72 h. All drugs were dissolved in media with DMSO concentration maintained at 1%. The effect of compounds on cell viability was measured using the MTS assay (CellTiter 96 Aqueous One Solution and CellTiter 96 Non-Radioactive Cell Proliferation Assays, Promega, Madison, WI) as described by the manufacturer. IC50s were determined using Prism GraphPad 8.
Western blot protocol was described in our previous works 24,25. In brief, Hep-G2 cells were seeded into a 6-well plate at 1*106/well in MEM for 24-48 h prior to treatment. Various concentrations of SAHA, STR-V-53, STR-V-114, and STR-I-195 solutions in DMSO were added to the cell culture such that the final DMSO level was 0.1%. Cells were treated for 24 h, washed with cold PBS, and lysed with RIPA buffer (120 µL) (VWR, VWRVN653 -100ML) containing phosphatase inhibitor (Fisher Thermo, A32957) and protease inhib itor (Fisher Thermo, A32955). The cell lysates were scraped, collected, and vortexed for 15 s, followed by sonication for 60 s. The lysate was centrifuged at 14000x rpm for 10 min, and the supernatants were collected. The total protein concentration was determined using a BCA protein assay kit (BioVision, K813-2500). Based on the results from the […], the lysates were diluted to make equal protein concentration, and 40 µg of each lysate was loaded to each wel l of the TGX […]
MIDI 4-20% gel (Biorad, cat. 5671093) and ran at 150 V for 70 min. […] After washing with TBS-T 3x5 mins, bands were quantified using the Odyssey CLx Image system. […]

As for `O=C(CCCCCCC(=O)Nc1ccccc1)NO` [SAHA, vorinostat, reference compound], the CD54 expression result in the experiment on Hep-G2 cells [1] is recorded as “upregulated”. For `O=C(CCCCCCn1cc(-c2ccc3cc(O[C@H]4O[C@H](CO)[C@@H](O)[C@H](O)[C@H]4O)ccc3c2)nn1)NO` [STR-V-114], the “Acetylation status of histone H4 and α-tubulin” value in the experiment on Hep-G2 cells [2] is “induced accumulation of acetylated H4 and acetylated tubulin”. In the case of `O=C(CCCCCCn1cc(-c2ccc(O[C@H]3O[C@H](CO)[C@@H](O)[C@H](O)[C@H]3O)cc2)nn1)NO` [STR-V-53], the CD54 expression result in the experiment on Hep-G2 cells [1] is listed as “upregulated”. Further, in the experiment with Hep-G2 cells [2], the “Acetylation status of histone H4 and α-tubulin” value was “induced accumulation of acetylated H4 and acetylated tubulin”. Regarding `O=C(CCCCCCn1cc(-c2ccc(O[C@@H]3O[C@H](CO)[C@@H](O)[C@H](O)[C@H]3O)cc2)nn1)NO` [STR-I-195], in the experiment on Hep-G2 cells [2] (0.5 μM), the “Acetylation of H4 and α-Tubulin” value is “did not show significant acetylation”. In the experiment on Hep-G2 cells [2] (1.25 μM and 2.5 μM), the “Acetylation of H4” value is “mild acetylation” and the “Acetylation of α-Tubulin” value is “significant acetylation”.
